Measured values reported in US20060246099A1 (L'OREAL, priority 2005, published 2006).

Assays:
[1] = system: human striated muscle cells innervated with explants of rat embryonic rachidian ganglia and spinal cord; experiment: Nerve-muscle coculture test (muscle fibre contractions); assay type: cell-based; conditions: 60 seconds incubation
Experimental: The compounds of Examples 1 and 2 were tested on a model of nerve-muscle coculture, which makes it possible to recreate a motor arc by innervating human striated muscle cells with explants of rat embryonic rachidian ganglia and spinal cord.
Human muscle cells, obtained from samples of striated muscle from healthy donors, are inoculated into wells of cross section 1.8 cm^2 (24-well culture dishes). After culturing for ten days, these cells form a monolayer and fuse. At this stage, explants of embryonic spinal cord from a 13-day-old rat, containing the rachidian ganglia, are placed on the culture.
The growth of the neurites is visible beyond the spinal cord explant after one day of culture. The first contractions of the muscle fibres are observed after five to six days of coculture, and after three weeks all the muscle fibres in the region of the explants contract.
The cocultures are used after 21 days, when the muscle fibres are striated and contain mature differentiated neuromuscular junctions.
A muscle fibre showing regular contractions (at least 60 contractions per minute) is then selected from three different culture wells and the number of contractions is counted over 30 seconds. […] At the end of incubation, the number of contractions is again counted over 30 seconds. […]

[2] = system: type L calcium channels, verapamil site; experiment: Binding to type L calcium channels, [3H](-)-D888 displacement; design: species or system rat; conditions: similar test, concentration of 50 μM
Experimental: The studies are performed using rat cerebral cortex homogenates (isolated membranes containing at their surface type L calcium channels) according to the method described by Reynolds I. J. et al., 1986, J. Pharmacol. Exp. Ther., 237, p. 731.
The experimental conditions are as follows:
D888, which is [^3H] (−)-demethoxyverapamil, serves as a radiolabelled specific ligand, and D600, which is (±)-methoxyverapamil hydrochloride, serves as a reference molecule.
The specific binding of a ligand (labelled D888) to the receptors (type L calcium channels, verapamil site) is defined as being the difference between the total binding and the non-specific binding determined in the presence of an excess of cold (non-radioactive) ligand. The results are expressed as a percentage of inhibition of the specific binding of the control in the presence of the test compound.

[3] = system: human striated muscle cells innervated with explants of rat embryonic rachidian ganglia and spinal cord; conditions: validation of the model; cited from earlier work
[4] = in vivo; cited from earlier work

Compound	% inhibition of contractions ([1]; 10 μM) [%]	% inhibition of contractions ([1]; 100 μM) [%]	inhibition of the specific binding of the control to the calcium channels [2] [%]	inhibition of muscle fibre contractions [3]	anti-wrinkle activity [4]
1-(2-phenylethyl)-4-(3-phenylpropyl)-piperazine [Compound 2]	50	100	50	–	–
CN1C(=O)CN=C(c2ccccc2)c2cc(Cl)ccc21 [diazepam]	–	–	–	inhibited muscle fibre contractions	anti-wrinkle activity has been demonstrated in vivo
